Measured values from patent publication US5885834A, “Antisense oligodeoxynucleotide against phosphodiesterase” (priority 1997, dated 1999).
Entries after “also recorded” stand apart in the source; their conditions may differ.

Assays:
[1] = system: RPMI 8392 cells; experiment: Apoptosis by endonuclease-digested DNA (DNA laddering) on agarose gels; assay type: cell-based, human; conditions: RPMI 8392 cells
Description: The preferred method for testing the ability of AS ODN to induce apoptosis as determined by detection of endonuclease digested DNA on agarose gels employs the following sequence:
(2) Cells are grown to ≈10^6 /ml, collected by centrifugation for 5 min. at 300×g (1000 rpm in an IEC Model K centrifuge), resuspended in growth medium to 10^6 cells/ml, and placed in a 24 well tissue culture plate at 1 ml/well. The cell volumes are kept to a minimum (i.e., -1 ml), in order to reduce the amount of ODN needed. The fetal bovine serum used in the growth medium for this step is heat-inactivated at 65° C. for 1 hr. to minimize serum nuclease activity.
(4) Cells are then incubated for varying times, usually 1-3 days, following which the DNA is isolated.
The supernatant is aspirated down to ≈50 μl of volume and the cell pellet is resuspended in this remaining small volume.
(6) About 400 μl of cold cell lysis buffer (50 mM Tris-HCl, pH 7.5, 10 mM EDTA, 1% Triton X-100) is then added.
(9) The upper, aqueous phase is transferred to a fresh microfuge tube and 250 μl of phenol and 250 μl of chloroform are added, the mixture gently vortexed for 5 sec., and centrifuged at 16,650×g for 5 min.
(10) The upper, aqueous phase is again transferred to a fresh microfuge tube and 500 μl of chloroform is added, followed by gentle vortexing and centrifugation at 16,650×g for 3 min.
(11) The upper, aqueous phase is again transferred to a fresh microfuge tube, 3M sodium acetate (pH 5.2) is added to a final concentration of 0.3M, and 2.5 volumes of ice cold 100% ethanol is added. The solution is left overnight at -20° C. to precipitate the DNA.
(12) The DNA is collected by centrifugation at 16,650×g for 15 min., the supernatant decanted, and the pellet air dried for ≈30-60 min. at room temperature. The DNA pellet is then dissolved in 50 μl of pH 8.0 TE buffer at room temperature overnight.
(13) One μl of a 4 mg/ml solution of DNase-free RNase A is then added to the DNA and incubation is carried out at 37° C. for 30 min. This step is necessary to prevent contaminating RNA from obscuring the gel.
(14) Thirty μl of DNA solution is then mixed with 6 μl of 6× loading buffer and run on a 2% agarose gel, containing 0.5 μg/ml ethidium bromide, in 0.5× TBE buffer (45 mM Tris-borate, 1 mM EDTA, pH 8.0) at ≈50 V for ≈1.5 hr. The 6× loading buffer used is 0.25% xylene cyanol and 30% glycerol. The use of bromophenol blue is omitted for this analysis because it tends to obscure the visualization of the DNA ladder pattern.
(15) The gel is then visualized and photographed under UV light.
The effect of pharmacological inhibition of each of these PDE activities on induction of apoptosis in RPMI 8392 cells was tested, using the appearance of oligonucleosome length fragments of endonuclease digested DNA as a measure of apoptosis.
Markers (lane 1 in both gels) are 1 kb DNA ladder size markers from GIBCO/BRL.
Cells (10^6) were collected by centrifugation at 670×g for 5 min. The cell pellets were rinsed once with 0.2M dibasic sodium phosphate and lysed in 300 μl of lysis buffer (50 mM Tris/HCl pH 7.5, 10 mM EDTA, 1% V/V Triton X-100) for 20 min on ice. Proteinase K was added to 0.5 mg/ml and DNase-free RNase was added to 50 μg/ml and the extract incubated at 37° C. for 1 hr. DNA was then extracted in phenol/chloroform (1:1) and chloroform (1:1) and precipitated in 2.5 volumes of ethanol. The extracted DNA was electrophoresed on 2% agarose gels, the gels stained with 0.5 μg/ml ethidium bromide and photographed under UV light.
Experiments were conducted to determine if inhibition of the expression of the gene for PDE1B1 could induce apoptosis.

[2] = system: PDE1 activity in RPMI 8392 cells; experiment: CaM-stimulated PDE (PDE1) activity in cells after ODN treatment; assay type: cell-based, human; conditions: for PDE1 (CaM-stimulated PDE) activity: 3 days
Description: Cells were grown to a density of about 10^6 /ml, collected by centrifugation (1200×g, 10 min), resuspended in I ml of homogenization buffer containing 40 mM Tris/HCl (pH 7.5), 1 mM EDTA, 1 mM DTT, 35 μg/ml phenylmethylsulfonyl fluoride, 15 mM benzamidine, 1 μg/ml leupeptin, 1 μg/ml antipain, 1 μg/ml pepstatin, and 1 μg/ml aprotinin, homogenized with 20 strokes of a Dounce glass-on-glasshomogenizer and assayed for PDE activity, using 1 μM cAMP as substrate, as described previously. Data points represent the means of 2 to 10 separate determinations. […] Control activity was 1.66±0.14 pmol/min/10^6 cells (mean±S.E.M.; n=8) in the absence and 4.80±0.42 pmol/min/10^6 cells (mean±S.E.M.; n=10) in the presence of Ca^2+ and calmodulin.
RPMI 8392 cells were grown and treated with AS and NS ODN as described in the legend to FIG. 2. Cells were then collected at daily intervals and assayed for PDE activity as described in FIG. 10. Results represent the mean±the range of duplicate determinations. Control activities (pmol/min/10^6 cells) were 1.17, 1.34, and 1.50 in the absence, and 3.83, 4.34, and 3.79 in the presence of Ca^2+ and calmodulin at days 1, 2, and 3, respectively.

5'-GGACAGCTCCATGCTCAG-3' (phosphorothioate, further chemistry not given here) [AS ODN, 18 nt phosphorothioate antisense oligodeoxynucleotide targeted against the translation initiation region of PDE1B1]
Induction of apoptosis (DNA fragmentation) ([1]; 10 μM ODN, 3 days): induced apoptosis
Induction of apoptosis (DNA fragmentation) ([1]; 30 μM ODN, 2 days (48 hr)): clearly induced apoptosis
Induction of apoptosis (DNA fragmentation) ([1]; 30 μM ODN, 3 days): induced apoptosis
PDE1 activity ([2]; 30 μM ODN, 2 days): noticeably diminished
PDE1 (CaM-stimulated PDE) activity ([2]; 10 or 30 μM ODN): undetectable; also recorded: disappear completely

5'-TACGTGAGGCACCTACGC-3' (phosphorothioate, further chemistry not given here) [NS ODN, control phosphorothioate nonsense ODN, same base composition as the AS ODN in random, scrambled order]
Induction of apoptosis (DNA fragmentation) ([1]; 30 μM ODN, 2 days (48 hr)): did not
Induction of apoptosis (DNA fragmentation) ([1]; any concentration tested (0.3-30 μM), 1, 2 and 3 days): no effect
PDE1 (CaM-stimulated PDE) activity ([2]; 10 or 30 μM ODN): relatively unchanged
PDE1 activity ([2]; 10 or 30 μM ODN, time not specified): little or no effect
